Series [1] deals with Trypanosoma cruzi. Put plainly: Antitrypanosomal activity against Trypanosoma cruzi Dm28c epimastigotes at 10 to 100 uM measured after 24 hrs by MTT assay. Type of series: functional. In general terms: Tetrazolium dyes change colour on reduction, which living cells bring about.
Series [2] in a line: Oxidation potential of compound against Ag/Agcl reference electrode at 1 mM by cyclic voltametry. The format is physicochemical. Particulars: 1000 µM.
The nature of series [3]: Antioxidant activity assessed as AAPH-induced peroxyl radical scavenging activity by measuring ORAC-FL index at 0.5 to 2.5 uM preincubated for 15 mins followed by AAPH addition measured every 1 min for 120 mins by fluorescence assay relative to trolox. The format is functional.
A short description of series [4]: Induction of free radical species generation assessed as compound-PBN adduct formation at 1 mM by ESR spectroscopic method. Type of series: physicochemical. Particulars: 1000 µM.
The subject of series [5] is Trypanosoma cruzi. Put plainly: Antitrypanosomal activity against Trypanosoma cruzi Dm28c epimastigotes after 24 hrs by MTT assay. Type of series: functional.
Series [6] in a line: Cytotoxicity against mouse RAW264.7 cells measured after 4 hrs by MTT assay. The format is toxicity.
For series [7], the system named is Trypanosoma cruzi. The series can be described thus: Induction of free radical species generation in microsomes of Trypanosoma cruzi Dm28c epimastigotes spin adduct formation at 5 mM measured after 10 mins using DMPO spin trap by ESR spectroscopic method. The format is functional.
Series [8] can be described thus: Antioxidant activity assessed as photolysis-induced hydroxyl radical scavenging activity at 1 mM measured after 2 mins using DMPO spin trap by ESR spectroscopic method relative to control. Type of series: functional.
The nature of series [9]: Selectivity index, ratio of IC50 for cytotoxicity against mouse RAW264.7 cells to IC50 for antitrypanosomal activity against epimastigote stage of Trypanosoma cruzi Dm28c. The format is toxicity, cell-based. Particulars: read-out: Ratio IC50.
Series [10] can be described thus: Selectivity index, ratio of IC50 for cytotoxicity against mouse RAW264.7 cells to IC50 for antitrypanosomal activity against trypomastigote stage of Trypanosoma cruzi Dm28c. The format is toxicity, cell-based. Particulars: read-out: Ratio IC50.
A short description of series [11]: Oxidation potential of compound at group 2 hydroxyl against Ag/Agcl reference electrode at 1 mM by cyclic voltametry.
Series [12] can be described thus: Oxidation potential of compound at group 1 hydroxyl against Ag/Agcl reference electrode at 1 mM by cyclic voltametry. Particulars: 1000 µM. Type of series: physicochemical.
Series [13] concerns Trypanosoma cruzi. Put plainly: Potency index, ratio of nifurtimox IC50 to compound IC50 for Trypanosoma cruzi Dm28c epimastigotes. The format is functional.
For series [14], the system named is Trypanosoma cruzi. Put plainly: Antitrypanosomal activity against trypomastigote stage of Trypanosoma cruzi Dm28c infected in African green monkey Vero cells assessed as growth inhibition incubated for 5 to 7 days post infection measured after 24 hrs by MTT assay. The format is functional, cell-based.
Series [15] relates to Trypanosoma cruzi. The series can be described thus: Antitrypanosomal activity against trypomastigote stage of Trypanosoma cruzi Dm28c infected in African green monkey Vero cells assessed as growth inhibition at 20 to 100 uM incubated for 5 to 7 days post infection measured after 24 hrs by MTT assay. Type of series: functional, cell-based.
Series [16] deals with Trypanosoma cruzi. The series can be described thus: Potency index, ratio of nifurtimox IC50 to compound IC50 for Trypanosoma cruzi Dm28c trypamastigotes infected in African green monkey Vero cells. Type of series: functional.

Activity calls are given as the source filed them. The rule behind the calls is not given here.

By IC50 is commonly meant the concentration that gives 50% inhibition. With `O=c1oc2ccc(O)cc2cc1-c1ccccc1O`, the outcome in the series on Trypanosoma cruzi [1] was Active. Moreover, the Activity is 0.79 V in series [2], 5.3 in [3] and “Active” in series [4]. Moreover, the IC50 in the series on Trypanosoma cruzi [5] was > 100 µM. Besides, in series [6], the half-maximal inhibitory concentration (IC50) at 4 h is > 100 µM.

With `O=c1oc2cc(O)cc(O)c2cc1-c1ccccc1`, the outcome in the series on Trypanosoma cruzi [1] and with Trypanosoma cruzi [7] was Active. Further, the Activity is 1.16 V in series [2], 1.81 in [3], 100% in series [8] and “Active” in series [4]. In the series with Trypanosoma cruzi [5], this molecule showed a half-maximal inhibitory concentration (IC50) of 6.15 µM. For the same molecule, in series [6], the half-maximal inhibitory concentration (IC50) at 4 h is > 100 µM. The selectivity ratio in series [9] is > 16.3.

As for `O=c1oc2c(O)cccc2cc1-c1ccc(O)c(O)c1`, the outcome with Trypanosoma cruzi [1] was Active. Further, the Activity is 0.81 V in [2] and 4.59 in [3]. In the series on Trypanosoma cruzi [5], this molecule registered an IC50 of 84.3 µM. Further, the IC50 at 4 h in [6] amounted to 115 µM. In series [9], the selectivity ratio came to 1.37.

Regarding `O=c1oc2c(O)c(O)ccc2cc1-c1ccccc1`, the result with Trypanosoma cruzi [1] and with Trypanosoma cruzi [7] was Active. Further, the Activity was determined as 0.81 V in series [2] and 1.11 in series [3]. This molecule also gave a concentration for half-maximal inhibition (IC50) in the series with Trypanosoma cruzi [5] of 8.9 µM. This molecule also had a half-maximal inhibitory concentration (IC50) at 4 h in [6] of 26.1 µM. For the same molecule, the selectivity ratio in series [9] is 2.93.

`CC1CS(=O)(=O)CCN1/N=C/c1ccc([N+](=O)[O-])o1` (configuration not stated) [NIFURTIMOX] came in with an IC50 in the series with Trypanosoma cruzi [5] of 17.4 µM. In [6], this molecule showed an IC50 at 4 h of 263 µM. Besides, the selectivity ratio in series [9] was found to be 15.1; in series [10], 26.3.

Take `O=c1oc2c(O)c(O)ccc2cc1-c1ccc(O)c(O)c1`: in the series on Trypanosoma cruzi [1], the outcome was Active. Besides, the Activity in series [11] is 0.79 V; in [3], 5.38; in series [8], 24.3%; in [12] it was 0.64 V. This molecule came in with an IC50 in the series with Trypanosoma cruzi [5] of 47 µM. In [6], this molecule came in with a half-inhibitory concentration (IC50) at 4 h of 97.5 µM. Also, the selectivity ratio in series [9] was 2.07.

Consider `O=c1oc2c(O)c(O)ccc2cc1-c1cccc(O)c1`, for which the outcome with Trypanosoma cruzi [1] was Active. For the same molecule, the Activity came to 0.81 V in series [2], 2.95 in [3] and 26.1% in series [8]. The half-maximal inhibitory concentration (IC50) with Trypanosoma cruzi [5] was 28.6 µM. Also, in series [6], the IC50 at 4 h is 398 µM. The selectivity ratio in series [9] is 13.9.

As to `O=c1oc2cc(O)cc(O)c2cc1-c1cccc(O)c1`, the outcome with Trypanosoma cruzi [1] was Active. Further, the Activity is 1.95 in series [3] and “Active” in series [4]. In addition, the half-inhibitory concentration (IC50) in the series on Trypanosoma cruzi [5] was > 100 µM. The half-inhibitory concentration (IC50) at 4 h in [6] is > 100 µM.

As for `O=c1oc2c(O)c(O)ccc2cc1-c1ccccc1O`, the result in the series with Trypanosoma cruzi [1], with Trypanosoma cruzi [7] and in the series with Trypanosoma cruzi [15] was Active. The Activity in series [2] was 0.78 V; in series [3], 2.23. Further, the “Ratio IC50” value in the series on Trypanosoma cruzi [13] is 10 - 13; in the series on Trypanosoma cruzi [16], “<=13”. The results for the IC50 with Trypanosoma cruzi [5] and with Trypanosoma cruzi [14] were 1.31 µM and 39.7 µM, respectively. For the same molecule, half-maximal inhibition in series [6] (IC50 at 4 h) required 68.9 µM. The selectivity ratio in series [9] was found to be 52.6; in [10], 1.73.

Turning to `O=c1oc2ccc(O)cc2cc1-c1cccc(O)c1`, the outcome in the series on Trypanosoma cruzi [1] was Active. Also, the Activity in series [11] was 1.17 V; in [3], 5.47; in [8], 100%; in series [4], “Active”; in series [12], 0.8 V. In addition, in the series on Trypanosoma cruzi [5], the IC50 is > 100 µM. For the same molecule, the IC50 at 4 h in [6] was > 100 µM.

As to `O=c1oc2c(O)cccc2cc1-c1cccc(O)c1`, in the series on Trypanosoma cruzi [1], the result was Active. Also, the values for the Activity in series [2] and in [3] were 0.74 V and 3.12, respectively. Further, the IC50 with Trypanosoma cruzi [5] is > 100 µM. Also, the IC50 at 4 h in [6] was > 100 µM.
